The text below walks through data of US20160199434A1, “COMPOSITIONS AND METHODS FOR MODULATING DNA METHYLATION” (OHIO STATE INNOVATION FOUNDATION, priority 2013, published 2016).

Where “and” joins values, the source holds several entries; their conditions need not be identical. Identical values can stand only once. Entries after “also recorded” stand apart in the source; their conditions may differ.

Test [1] has as its system DNMT-3b. Put plainly: DNMT-3b mRNA expression in lungs of normal mice after systemic administration. It is filed as in vivo, mouse. Conditions: i.p. 17.5 mg/kg three times per week for three weeks, vs DMSO. Here is the method:
FIGS. 14A-14C show the effects of systemic administration of AKB-6899. Mice were treated three times per week for three weeks with either i.p. AKB-6899 or i.p. DMSO. The lungs were removed and assayed to determine DNMT mRNA expression, percent CpG methylation, and fold change in mRNA. […] The data was standardized to 1.0 by the DMSO levels of the respective gene expression, (n=4 lungs per condition).

The subject of test [2] is desmoplakin (DSP) gene promoter. Put plainly: Methylation-specific PCR of DSP promoter in PyMT breast cancer cells. It is filed as cell-based, mouse. As for the experimental part: FIGS. 3A-3E show the effect of AKB-6899 (25 μM) on methylation of the desmoplakin (DSP) gene promoter in PyMT breast cancer cells (3A), human MDA-MB-231 triple negative breast cancer cells (3B), human C8161.9 melanoma cells (3C), and human MCF-7 breast cancer cells (3D). In FIG. 3A, the DSP promoter was 100% unmethylated (AKB-6899) vs. 99.99% methylated (vehicle). In FIG. 3B, the DSP promoter was 99.62% unmethylated (AKB-6899) v. 99.89% (vehicle). In FIG. 3C, the DSP promoter was 99.90% unmethylated (AKB-6899) v. 42.04% (vehicle). In FIG. 3D, the DSP promoter was 92.48% unmethylated (AKB-6899) v. 98.48% (vehicle). In FIG. 3E, when compared to the vehicle (DMSO), treatment of PyMT cells with AKB-6899 increased DSP expression.
(§1) Because DSP is regulated by ER/PR expression, and because late-stage PyMT tumors lose ER/PR-positivity and heavily metastasize to the lymph nodes and lungs (Lin et al., 2003), the effects of AKB-6899 on more global events that regulate gene expression was evaluated. PyMT tumor cells in culture were treated with DMSO or AKB-6899. Methylation-specific PCR for CpG islands in the desmoplakin promoter were performed. […] Trypan Blue confirmed no cell death in AKB-6899 treated cells when compared to control cells. The experiment was repeated and RNA was isolated from the cells. RT-PCR was performed and the regulation of DNA methyltransferases (DNMTs) was evaluated. […] (FIG. 1A). The decrease in mRNA levels of DNMT-1 and DNMT-3a increased the mRNA level of DSP (FIG. 4A) and increased desmoplakin protein expression (FIG. 5A).

Test [3] concerns MDA-MB-231 human breast cancer cells. Put plainly: RNAseq of microRNAs and snoRNAs in MDA-MB-231 cancer cells. It is filed as cell-based. The following applies: MDA-MB-231 cells, compared to DMSO-treated cells. Here is the method: The expression of various microRNAs and snoRNAs was evaluated following administration of AKB-6899 to MDA-MB-231 human breast cancer cells. In these cancer cells, AKB-6899 increased expression of several microRNAs, some of which target methylation regulators such as the DNMTs. AKB-6899 also regulated about 20 snoRNAs, some of which are known to guide methylation. Finally, the analysis identified over sixty (60) RNA transcripts in the AKB-6899 treated cancer cells, which transcriptions are yet to annotated. The AKB-6899 treated breast cancer cells were compared to DMSO-treated cancer cells.

In test [4] the test system is DSP promoter. Put plainly: Percent CpG methylation of DSP promoter in HeLa cells. Conditions: 5 or 25 μM, compared to DMSO and PBA (FIG. 6B). It is filed as cell-based, human. Here is the method:
HeLa cervical cancer cells were left untreated, were treated with DMSO, were treated with 5-AZA, were treated with AKB-6899 (5 or 25 μM), or were treated with PBA (2 mM).

The subject of test [5] is DNMT-3b. Put plainly: DNMT-3b mRNA level by RT-PCR in PyMT tumor cells. It is filed as cell-based, mouse. The following applies: PyMT tumor cells in culture. Here is the method:
as §1

Test [6] deals with desmoplakin protein. Kind of test: Desmoplakin protein expression in cultured PyMT tumor cells. Conditions: 10 μM, 24 hours (FIG. 5A). It is filed as cell-based, mouse. As for the experimental part: FIGS. 5A-5B show desmoplakin protein expression following AKB-6899 treatment. In FIG. 5A, cultured PyMT tumor cells were treated for 24 hours with DMSO or AKB-6899 (10 μM). AKB-6899 increased desmoplakin protein expression.
The gene expression signatures from the tumors of PyMT breast tumor-bearing mice that were treated with either vehicle or AKB-6899 were evaluated. […] Methylation-specific PCR on the desmoplakin promoter was performed. The level of hypomethylation was near complete.

Test [7] deals with desmoplakin (DSP) mRNA. Kind of test: Desmoplakin mRNA expression in PyMT tumors of tumor-bearing mice. It is filed as in vivo, mouse. An excerpt:
FIGS. 4A-4B show desmoplakin mRNA expression in vitro and in vivo.
Desmoplakin (DSP) is the major protein component of the desmosome located in the inner membrane of epithelial cells where it binds desmosomal cadherins to maintain cell-to-cell adhesion. DSP is regulated by ER/PR expression (Maynadier et al. 2012; Ahmed et al., 1995; Pang et al., 2004). Clinically, expression of DSP is higher in normal mammary epithelium. Loss of DSP correlates with less differentiated breast tumors and increased lymph node involvement. […] Functional desmoplakin that is incorporated into the desmosome is not phosphorylated at serine 165/166. Phosphorylation at ser165/166 by protein kinase C (PKC) causes desmoplakin to disassemble from the desmosome. The loss of desmosome function and decreased adherence junctions are markers that can inform tumor staging, prognosis, and treatment planning as this transition eliminates therapeutic effectiveness and increases the likelihood of poor clinical outcome (Dusek et al., 2011). Further, loss of DSP is a marker in the Epithelial-to-Mesenchymal Transition (EMT) process as it binds to adherence proteins that also translocate to the nucleus and activate the Wnt/β-catenin pathway (Yang et al., 2012).
The gene expression signatures from the tumors of PyMT breast tumor-bearing mice that were treated with either vehicle or AKB-6899 were evaluated. […]

In the case of `O=C(O)CNC(=O)c1ncc(-c2cccc(F)c2)cc1O` [AKB-6899, {[5-(3-Fluorophenyl)-3-hydroxypyridine-2-carbonyl]amino}acetic acid], the “DNMT-3b expression in lungs” value in test [1] was “inhibited”. Further, the DSP promoter unmethylated in test [2] (PyMT breast cancer cells, 25 μM (FIG. 3A)) is listed as 100%. Also, the “desmoplakin promoter methylation after treatment” value in test [2] (PyMT mouse breast cancer cells) amounted to 0.0%. The “methylation state of DSP promoter CpG islands (in words)” value in test [2] (PyMT tumor cells in culture) was “entirely unmethylated; also recorded: near complete”. In test [3], the “expression of microRNAs” value was “increased”. Also, the “demethylation of DSP promoter (percent CpG methylation)” value in test [4] is recorded as “increase in demethylation”. In test [5], the “DNMT-3b mRNA level” value is reported as “no difference”. For the same molecule, the desmoplakin protein expression entry in test [6] was “upregulation; also recorded: increased”. Also, in test [7] (PyMT breast tumor-bearing mice, 17.5 mg/kg, vs DMSO/vehicle animals, 17.5 mg/kg), the “increase in DSP mRNA expression” value was ~118 fold and 118.5 fold. For the same molecule, the “desmoplakin expression from PyMT tumors (in words)” value in test [7] (in vivo, compared to vehicle (FIG. 4B)) is “significantly increased”.
